In the CheMixHub viscosity set:
± gives the uncertainty stated by the source.

Experiment: xn = mol fraction of the nth substance listed

C1CCCCCCC1 + C1CCCC1
101 kPa
Conditions	viscosity [mPa·s]
298.15 K, x1 = 0.0472	0.4501 ± 0.0048
298.15 K, x1 = 0.06	0.4609 ± 0.0049
298.15 K, x1 = 0.1203	0.5119 ± 0.0053
298.15 K, x1 = 0.1974	0.5838 ± 0.006
298.15 K, x1 = 0.1982	0.5837 ± 0.006
298.15 K, x1 = 0.2776	0.6681 ± 0.0068
298.15 K, x1 = 0.4053	0.824 ± 0.008
298.15 K, x1 = 0.4083	0.827 ± 0.008
298.15 K, x1 = 0.5052	0.968 ± 0.01
298.15 K, x1 = 0.5909	1.116 ± 0.011
298.15 K, x1 = 0.6747	1.276 ± 0.013
298.15 K, x1 = 0.7902	1.55 ± 0.015
298.15 K, x1 = 0.9049	1.895 ± 0.019
303.15 K, x2 = 0.1036	1.684 ± 0.01
303.15 K, x2 = 0.2009	1.421 ± 0.0085
303.15 K, x2 = 0.3014	1.205 ± 0.0073
303.15 K, x2 = 0.3972	1.031 ± 0.0064
303.15 K, x2 = 0.5003	0.8744 ± 0.0055
303.15 K, x2 = 0.5992	0.7468 ± 0.0049
303.15 K, x2 = 0.7036	0.6288 ± 0.0043
303.15 K, x2 = 0.8996	0.4555 ± 0.0036

C1CCCCCCC1 + C1CCCCC1
viscosity [mPa·s], 101 kPa
Conditions	303.15 K	308.15 K	313.15 K
x2 = 0.0546	–	1.706 ± 0.027	1.541 ± 0.024
x2 = 0.0923	1.877 ± 0.011	–	–
x2 = 0.1695	–	1.514 ± 0.024	1.381 ± 0.022
x2 = 0.2019	1.715 ± 0.01	–	–
x2 = 0.2513	–	1.41 ± 0.022	1.277 ± 0.02
x2 = 0.2992	1.585 ± 0.0094	–	–
x2 = 0.3712	–	1.274 ± 0.02	1.165 ± 0.019
x2 = 0.4839	–	1.158 ± 0.019	1.054 ± 0.017
x2 = 0.4989	1.344 ± 0.0081	–	–
x2 = 0.5516	–	1.097 ± 0.018	1.004 ± 0.017
x2 = 0.5811	1.254 ± 0.0076	–	–
x2 = 0.6466	1.183 ± 0.0072	–	–
x2 = 0.6567	–	1.006 ± 0.017	0.9146 ± 0.015
x2 = 0.7233	1.102 ± 0.0068	–	–
x2 = 0.7817	–	0.9053 ± 0.015	0.8267 ± 0.014
x2 = 0.8015	1.021 ± 0.0063	–	–
x2 = 0.8998	0.924 ± 0.0058	–	–
x2 = 0.9314	–	0.8049 ± 0.014	0.7359 ± 0.013

CCCCC + C1CCCCC1
101 kPa
Conditions	viscosity [mPa·s]
293.15 K, x2 = 0.2248	0.287 ± 0.008
293.15 K, x2 = 0.3367	0.327 ± 0.009
293.15 K, x2 = 0.4743	0.39 ± 0.01
293.15 K, x2 = 0.601	0.466 ± 0.012
293.15 K, x2 = 0.7202	0.561 ± 0.015
293.15 K, x2 = 0.8333	0.685 ± 0.018
298.15 K, x2 = 0.176	0.264 ± 0.007
298.15 K, x2 = 0.3541	0.321 ± 0.009
298.15 K, x2 = 0.4788	0.372 ± 0.01
298.15 K, x2 = 0.6163	0.447 ± 0.013
298.15 K, x2 = 0.7478	0.544 ± 0.02
298.15 K, x2 = 0.8754	0.68 ± 0.026

CCCCCCCO + C1CCCCC1
viscosity [mPa·s]
Conditions	293.15 K	303.15 K	313.15 K	323.15 K
100 kPa, x2 = 0.0812	6.08 ± 0.49	4.38 ± 0.35	3.22 ± 0.26	2.46 ± 0.2
100 kPa, x2 = 0.1614	5.3 ± 0.43	3.79 ± 0.3	2.82 ± 0.23	2.16 ± 0.17
100 kPa, x2 = 0.2386	4.61 ± 0.37	3.28 ± 0.26	2.47 ± 0.2	1.91 ± 0.15
100 kPa, x2 = 0.3496	3.76 ± 0.3	2.69 ± 0.22	2.05 ± 0.16	1.59 ± 0.13
100 kPa, x2 = 0.4387	3.17 ± 0.25	2.28 ± 0.18	1.75 ± 0.14	1.38 ± 0.11
100 kPa, x2 = 0.5596	2.47 ± 0.2	1.81 ± 0.15	1.41 ± 0.11	1.12 ± 0.09
100 kPa, x2 = 0.6491	2.02 ± 0.16	1.52 ± 0.12	1.18 ± 0.1	0.95 ± 0.08
100 kPa, x2 = 0.7411	1.64 ± 0.13	1.27 ± 0.1	1 ± 0.08	0.82 ± 0.07
100 kPa, x2 = 0.8503	1.28 ± 0.1	1.03 ± 0.08	0.83 ± 0.07	0.7 ± 0.06
100 kPa, x2 = 0.9397	1.07 ± 0.09	0.87 ± 0.07	0.72 ± 0.06	0.62 ± 0.05
101.33 kPa, x1 = 0.0996	–	0.9648 ± 0.012	–	–
101.33 kPa, x1 = 0.197	–	1.134 ± 0.014	–	–
101.33 kPa, x1 = 0.3024	–	1.357 ± 0.016	–	–
101.33 kPa, x1 = 0.3923	–	1.585 ± 0.019	–	–
101.33 kPa, x1 = 0.5062	–	1.936 ± 0.023	–	–
101.33 kPa, x1 = 0.6052	–	2.307 ± 0.027	–	–
101.33 kPa, x1 = 0.7008	–	2.749 ± 0.032	–	–
101.33 kPa, x1 = 0.795	–	3.258 ± 0.037	–	–
101.33 kPa, x1 = 0.884	–	3.84 ± 0.043	–	–
